Literature values, collected in patent US20050202566A1, “Device and method for determining parameters” (priority 2002, published 2005).

System: thrombus formation
Conditions: ex vivo flow models using whole blood; with increasing shear

Structure (SMILES)	inhibition of thrombus formation as a function of shear
O=C(O)COc1ccc(CCNS(=O)(=O)c2ccccc2)s1 [Linotroban]	increasingly inhibit thrombus formation
CC(=O)Oc1ccccc1C(=O)O [aspirin]	increasingly inhibit thrombus formation
